What was measured:
Type in all cases: biochemical, Spirodela polyrhiza
SpPAL1 [1] = tested on: T1, SpPAL1; assay: Michaelis-Menten kinetics, deamination to trans-cinnamic acid; conditions: 0-20 mM L-Phe; pH and temperature of the kinetic runs not clearly stated (activity assay: 100 mM Tris-HCl pH 8.0, 50 °C)
T1 construct: full-length ORF (2172 bp); about 78 kDa; homotetramer only predicted
Text: Michaelis-Menten kinetics, deamination to trans-cinnamic acid on SpPAL1

SpPAL3 = tested on: T2, SpPAL3; assay: as above; conditions: 0-20 mM L-Phe; pH and temperature of the kinetic runs not clearly stated (activity assay: 100 mM Tris-HCl pH 8.0, 50 °C)
T2 construct: about 79 kDa; homotetramer only predicted
Text: Michaelis-Menten kinetics, deamination to trans-cinnamic acid on SpPAL3

SpPAL2 [2] = tested on: T3, SpPAL2; assay: as above; conditions: 0-20 mM L-Phe; pH and temperature of the kinetic runs not clearly stated (activity assay: 100 mM Tris-HCl pH 8.0, 50 °C)
T3 construct: full-length ORF (2277 bp); about 83 kDa; homotetramer only predicted
Text: Michaelis-Menten kinetics, deamination to trans-cinnamic acid on SpPAL2

SpPAL1 [3] = tested on: T1, SpPAL1; assay: Michaelis-Menten kinetics, deamination to p-coumaric acid; conditions: 0.1-2.5 mM L-Tyr; pH and temperature of the kinetic runs not clearly stated (activity assay: 100 mM Tris-HCl pH 8.0, 50 °C)
Text: Michaelis-Menten kinetics, deamination to p-coumaric acid on SpPAL1

SpPAL2 [4] = tested on: T3, SpPAL2; assay: as above; conditions: 0.1-2.5 mM L-Tyr; pH and temperature of the kinetic runs not clearly stated (activity assay: 100 mM Tris-HCl pH 8.0, 50 °C); Km lies above the tested concentration range
Text: Michaelis-Menten kinetics, deamination to p-coumaric acid on SpPAL2

Km (SpPAL1 [1])	Km (SpPAL3)	Km (SpPAL2 [2])	SMILES	Km (SpPAL1 [3])	Km (SpPAL2 [4])
252 µM	632 µM	345 µM	N[C@@H](Cc1ccccc1)C(=O)O [L-Phe]		
			N[C@@H](Cc1ccc(O)cc1)C(=O)O [L-Tyr]	1290 µM	8720 µM

— paper PMC11435183, “Enzymatic Characterization of SpPAL Genes in S. polyrhiza and Overexpression of the SpPAL3” (Plants, 2024)
